Here are results for one molecule from patent publication EP0863156A1, “Peptides useful as somatostatin antagonists” (American Cyanamid Company, priority 1997, dated 1998).

The Ki is the dissociation constant of the complex between target and ligand, obtained from inhibition or displacement. Lower therefore signals a stronger hold on the target.

For experiment [1], the target named is T1, SSTR2 (Rattus norvegicus, UniProt P30680). Nature of the experiment: cAMP accumulation in forskolin-stimulated GH4C1/SSTR2 cells (SPA radioimmunoassay). Type of experiment: cell-based. The arrangement: expressed in transfected cells; host or cells: GH4C1 rat pituitary tumor cells (GH4C1/SSTR2). Conditions: in the absence of SRIF (inverse agonist activity). The source says: A primary effect of SRIF upon mammalian cells is the reduction of cyclic adenosine 3',5'-monophosphate(cAMP) levels, via inhibition of adenylyl cyclase. This is the basis of a common assay for SRIF agonists and antagonists, whereby SRIF agonists reduce artificially stimulated cAMP levels, and SRIF antagonists reverse the effect of SRIF. The rat pituitary tumor cell line GH4C1 predominantly expresses SSTR2, and responds to SRIF and to forskolin, a stimulator of adenylate cyclase (see C.M. Eppler, et al., J. Biol. Chem., 267, 15603-15612, 1992, incorporated herein by reference). […] This increases the response to SRIF and provides a greater dynamic range for the measurement of SRIF antagonist activity.
Stimulation of cells. GH4C1/SSTR2 cells, grown in DMEM with 10% bovine serum, are released from a tissue culture dish by incubation for several minutes at 37° C with PBS containing 0.5 mM EDTA. Cells are washed in induction buffer (PBS containing 100 µM IBMX (an inhibitor of cAMP breakdown) and 2 mM CaCl2) at room temperature, and resuspended at 2 x 10^6/mL in induction buffer. Into each well of a 96-well tray are added 50 µL of a 2 X concentration of stimulants in induction buffer. […] Baseline cAMP levels are determined in samples with no added forskolin or SRIF, and each treatment is performed in triplicate.
cAMP assay. […] The 96-well tray is sealed, shaken at room temperature overnight and measured for bound radioligand in a MicroBeta liquid scintillation counter (Wallac, Gaithersburg. MD). The standard curve is determined for each experiment by performing a nonlinear regression (exponential decay) analysis of cpm measured for the cAMP standards vs. their log concentrations, and test sample values are determined by using Prism software (Graphpad Software Inc., San Diego, CA) and are shown in Table II and Figure 1.
The intrinsic activity of an SRIF antagonist is the percent reversal of the SSTR2 activation by SRIF or MK678, wherein 0% is defined by cAMP levels in samples treated with forskolin plus SRIF or MK678 and 100% is the cAMP level measured after treatment with forskolin alone. […]
In general terms: cAMP levels reflect the balance of adenylyl cyclase and phosphodiesterase activity.

Experiment [2] concerns the target T1, SSTR2. Described as above. Type of experiment: cell-based. The arrangement: expressed in transfected cells; host or cells: GH4C1 rat pituitary tumor cells.
Experimental: This is the basis of a common assay for SRIF agonists and antagonists, whereby SRIF agonists reduce artificially stimulated cAMP levels, and SRIF antagonists reverse the effect of SRIF. […] This increases the response to SRIF and provides a greater dynamic range for the measurement of SRIF antagonist activity.
Stimulation of cells. GH4C1/SSTR2 cells, grown in DMEM with 10% bovine serum, are released from a tissue culture dish by incubation for several minutes at 37° C with PBS containing 0.5 mM EDTA. Cells are washed in induction buffer (PBS containing 100 µM IBMX (an inhibitor of cAMP breakdown) and 2 mM CaCl2) at room temperature, and resuspended at 2 x 10^6/mL in induction buffer. Into each well of a 96-well tray are added 50 µL of a 2 X concentration of stimulants in induction buffer. […] To initiate stimulation of the cells, 50 µL (100,000) cells are added to each well, mixed by shaking 10 seconds on a plate shaker and placed at 37° C for 15 minutes. Stimulation is arrested and cells are lysed by adding 15 µL 0.33 N HCI to each well and incubating the plate for 30 minutes at 37° C. Samples are neutralized by addition of 15 µL 0.25 N NaOH/50 mM Hepes pH 7.4. Baseline cAMP levels are determined in samples with no added forskolin or SRIF, and each treatment is performed in triplicate.
cAMP assay. To measure accumulated cAMP in the samples, a radioimmunoassay is employed. The scintillation proximity assay (SPA, Amersham, Arlington Heights, IL) allows the rapid measurement of ^125I cAMP bound to a specific antibody without separating bound radioligand from free radioligand. Each of the following reagents (15 µL) are added per well in a 96-well tray: supernatants from the cell stimulation; ^125I cAMP; SPA beads conjugated to monkey anti-rabbit IgG antibodies; and rabbit anti-cAMP antibodies. For the standard curve, known amounts of cAMP (0.2 - 12.8 pmol) are added in place of cell supernatants. The 96-well tray is sealed, shaken at room temperature overnight and measured for bound radioligand in a MicroBeta liquid scintillation counter (Wallac, Gaithersburg. MD).
The intrinsic activity of an SRIF antagonist is the percent reversal of the SSTR2 activation by SRIF or MK678, wherein 0% is defined by cAMP levels in samples treated with forskolin plus SRIF or MK678 and 100% is the cAMP level measured after treatment with forskolin alone. Therefore, increased intrinsic activity of a test compound indicates increased antagonist activity of said test compound.
An inverse agonist is a compound that is not only a pure antagonist (i.e. lacking agonist activity), but also blocks the constitutive activity of an unoccupied receptor. One indication of inverse agonist activity is the ability of a SRIF antagonist to increase cAMP levels in the absence of added SRIF.
The target in experiment [3] is T1, SSTR2. The experiment can be described thus: Competitive binding of 125I labeled S-14 to membranes of cells expressing transfected SSTR2 (SPA). The arrangement: expressed in transfected cells. As to the method:
Membrane preparation. Tissue culture cell lines expressing transfected cDNA clones of SSTR2 and SSTR5 are used as a source of plasma membranes which specifically bind ^125I labeled S-14 (Amersham, Arlington Heights, IL). Cells are removed from culture dishes by incubation at 4°C for 5 minutes in PBS containing 1 mM EDTA, spun down (2,000 rpm, 5') and resuspended in 15 mL homogenization buffer (1 mM sodium bicarbonate pH 7.2, 1 mM EDTA, 1 mM EGTA and the following protease inhibitors: leupeptin and aprotenin at 5 µg/mL and benzamidine and bacitracin at 100 µg/mL). Cells are given 20 strokes with a Dounce homogenizer on ice and spun at 2000 rpm for 10 minutes. Membranes are isolated from the supernatant by centrifugation at 17,000 rpm for 30 minutes. The membrane pellet is washed once in 15 mL homogenization buffer and once in storage buffer (25 mM Tris pH 7.4 containing protease inhibitors). […] The membrane pellet is resuspended in storage buffer, measured for protein concentration (BioRad, CA) and stored at -80°C.
Binding assay. […] Bound radioligand is determined by counting in a Microbeta Liquid Scintillation counter (Wallac, Gaithersburg, MD). Binding data is plotted and IC50 and Ki values are calculated for test compounds using Prism software (Graphpad Software Inc., San Diego, CA) and are shown in Table V. Binding is expressed as Ki, µM.

The structures appear in SMILES notation. Square brackets hold non-standard residues; d marks the D form. Peptide text beside a SMILES is read from it.

T1 sequence (P30680 whole entry): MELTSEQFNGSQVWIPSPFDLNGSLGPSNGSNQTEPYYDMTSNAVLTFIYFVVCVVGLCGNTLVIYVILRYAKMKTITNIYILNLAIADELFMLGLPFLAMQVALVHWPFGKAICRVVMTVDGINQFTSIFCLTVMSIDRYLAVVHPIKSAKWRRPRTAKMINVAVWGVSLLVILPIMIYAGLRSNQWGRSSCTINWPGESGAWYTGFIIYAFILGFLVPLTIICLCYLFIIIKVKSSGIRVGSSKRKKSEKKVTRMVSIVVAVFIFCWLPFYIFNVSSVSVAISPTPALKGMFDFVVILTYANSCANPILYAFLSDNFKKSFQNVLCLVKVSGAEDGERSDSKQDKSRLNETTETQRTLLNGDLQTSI

Turning to `CC[C@@H](C)[C@@H](NC(=O)[C@@H](Cc1ccccc1)NC(=O)[C@@H](Cc1c[nH]cn1)NC(C)=O)C(=O)N[C@H](CCCNC(=N)N)C(=O)N[C@H](Cc1c[nH]c2ccccc12)C(=O)N[C@H](Cc1ccccc1)C(N)=O` [Peptide 1, Ac-D-His-D-Phe-D-Ile-D-Arg-D-Trp-D-Phe-NH2] (Ac-[dH][dF][dI][dR][dW][dF]-NH2), the “forskolin-stimulated cAMP levels” value at SSTR2 [1] is on record as “increase in forskolin-stimulated cAMP levels”. Also, the cAMP was 1.14 pM per 4 x 10^4 cells on SSTR2 [2] (Forskolin 1.25 µM + MK 678 10 nM + Peptide 1 1 µM (forskolin + MK 678 alone 0.91)); 2.69 pM per 4 x 10^4 cells at SSTR2 [2] (Forskolin 1.25 µM + MK 678 10 nM + Peptide 1 10 µM (forskolin + MK 678 alone 0.91)); 3.32 pM per 4 x 10^4 cells at SSTR2 [2] (Forskolin 1.25 µM + MK 678 10 nM + Peptide 1 50 µM (forskolin + MK 678 alone 0.91)); 2.57 pM per 4 x 10^4 cells on SSTR2 [2] (Forskolin 1.25 µM, no MK 678, Peptide 1 1 µM (forskolin alone 3.04; baseline 0.36)); 3.05 pM per 4 x 10^4 cells at SSTR2 [2] (Forskolin 1.25 µM, no MK 678, Peptide 1 10 µM (forskolin alone 3.04; baseline 0.36)); 3.33 pM per 4 x 10^4 cells at SSTR2 [2] (Forskolin 1.25 µM, no MK 678, Peptide 1 50 µM (forskolin alone 3.04; baseline 0.36)). Moreover, the Emax at 2 µM on SSTR2 [2] (GH4-C1, test peptide 2 µM, percent reversal of SSTR2 activation by SRIF or MK678, 0% = forskolin plus agonist, 100% = forskolin alone, read-out: cAMP Assay Intrinsic activity) turned out to be 85.2%. Also, the “forskolin-stimulated cAMP levels in the absence of SRIF (inverse agonist activity)” value at SSTR2 [2] (GH4C1/SSTR2 cells, no added SRIF, Figure 1 (Table II) and Figure 2 (Table IV)) is given as “causes an increase in forskolin-stimulated cAMP levels even in the absence of SRIF”. In addition, the “parallelism of the dose response curves of S-14 or MK678 with and without peptide 1” value on SSTR2 [2] (forskolin stimulated cells, increasing doses of S-14 or MK678, Figure 2 (Table IV)) is “directly competing with the SRIF agonists”. Besides, the Ki on SSTR2 [3] was determined as 140 nM.
